Tests used:
Arabidopsis thaliana [1] = test: Phenotypic profiling of Arabidopsis sprayed with unknown and commercial herbicides (MOA1); assay type: in vivo; conditions: Ward's method
Arabidopsis thaliana [2] = test: Biochemical (metabolite) profiling by LC-MS and GC-MS of sprayed Arabidopsis (MOA1); conditions: within one hour after spraying

## CC(C)OC(=O)Nc1cccc(Cl)c1 [Chloropropham]
Arabidopsis thaliana [1]
  phenotype / hierarchical clustering of the eleven phenotypic characteristics: neither showed a strong herbicidal phenotype
Arabidopsis thaliana [2]
  stress related (commonly regulated) metabolites: neither butylate nor chlorpropham treatment resulted in many changes

From US20040023295A1, “Methods and systems for analyzing complex biological systems” (priority 2001, published 2004)
